Assay results taken from patent US10329282B2, “Rho-associated protein kinase inhibitor, pharmaceutical composition comprising the same, as well as preparation method and use thereof” (Beijing Tide Pharmaceutical Co., Ltd., priority 2017, dated 2019).
pIC50: −log10 of the molar value.

Target: ROCK2 (Homo sapiens (Human), UniProt O75116)
Experiment: ROCK2 kinase IC50 assay (CISBIO HTRF KinEASE-STK S2 kit)
Format: biochemical
Settings: ROCK2 from Carna Biosciences, 2 h incubation at room temperature
Summary of the method: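 ROCK2 reaction with STK-S2 substrate and ATP (5× working solutions 1.5 μM each), 2 h at room temperature; 9-point compound dilutions from 10000 nM. HTRF 665/615 emission ratio gave % inhibition versus kinase and no-kinase controls; IC50 by curve fit.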

Chain of ROCK2 (O75116 1-553): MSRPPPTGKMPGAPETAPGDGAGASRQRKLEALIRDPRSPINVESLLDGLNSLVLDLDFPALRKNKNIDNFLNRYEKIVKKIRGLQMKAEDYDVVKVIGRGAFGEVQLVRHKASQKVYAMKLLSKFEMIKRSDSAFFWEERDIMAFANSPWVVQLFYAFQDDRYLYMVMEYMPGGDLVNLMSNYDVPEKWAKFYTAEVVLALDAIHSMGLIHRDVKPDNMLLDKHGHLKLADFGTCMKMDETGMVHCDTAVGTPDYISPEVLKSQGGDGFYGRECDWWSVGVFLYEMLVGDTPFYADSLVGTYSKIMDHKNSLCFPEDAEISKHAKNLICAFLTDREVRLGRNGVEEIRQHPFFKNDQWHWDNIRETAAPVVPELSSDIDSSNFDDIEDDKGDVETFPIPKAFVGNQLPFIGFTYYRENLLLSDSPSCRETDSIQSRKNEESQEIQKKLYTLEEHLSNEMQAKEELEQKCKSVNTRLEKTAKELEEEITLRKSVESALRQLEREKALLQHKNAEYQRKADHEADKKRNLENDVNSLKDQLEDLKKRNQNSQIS

| SMILES | pIC50 |
| --- | --- |
| O=C(NC1CCOCC1)c1cc2ccc(-c3nccc(Nc4ccc(-c5cn[nH]c5)cc4)n3)cc2[nH]1 [TDI01338, 6-(4-((4-(1H-pyrazol-4-yl)phenyl)amino)pyrimidin-2-yl)-N-(tetrahydro-2H-pyran-4-yl)-1H-indole-2-carboxamide] | 6.94 |
| CN(C(=O)c1cc2ccc(-c3nccc(Nc4ccc(-c5cn[nH]c5)cc4)n3)cc2[nH]1)C1COC1 [TDI01344, 6-(4-((4-(1H-pyrazol-4-yl)phenyl)amino)pyrimidin-2-yl)-N-methyl-N-(oxetan-3-yl)-1H-indole-2-carboxamide] | 7.01 |
